Here are results for one substance from patent publication EP1222242B1, “CLEANING AGENTS WHICH CONTAIN SURFACTANTS AND ENZYME INHIBITORS” (Henkel Kommanditgesellschaft auf Aktien, priority 1999, dated 2001).

Entries after “also recorded” stand apart in the source; their conditions may differ.

For one assay, the target named is T1, Trypsin (Bos taurus, UniProt P00760).
T1 construct: aus der vom Pankreas gebildeten Vorstufe Trypsinogen durch Abspaltung eines Hexapeptids entsteht; purchased Sigma; host or cells: bovine pancreas (Rinderpankreas)
T1 sequence (P00760 24-246): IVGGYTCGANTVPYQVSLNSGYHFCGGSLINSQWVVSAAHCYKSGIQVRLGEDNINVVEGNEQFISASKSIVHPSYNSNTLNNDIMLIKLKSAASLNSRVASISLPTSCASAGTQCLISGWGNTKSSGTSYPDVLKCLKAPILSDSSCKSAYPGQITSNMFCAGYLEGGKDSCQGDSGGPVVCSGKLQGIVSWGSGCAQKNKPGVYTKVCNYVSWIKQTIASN
Put plainly: Trypsin enzyme activity test (BAPNA substrate, absorbance at 405 nm). The following applies: for Hemmwirkung (Minderung der Trypsin-Aktivität): 25 °C. It counts as biochemical, Rind. The text has this:
(§1) Da die hauteigenen, am Desmosomenabbau beteiligten Proteasen nicht in ausreichender Menge zur Verfügung standen, dienten die Serin-Proteasen Trypsin und Chymotrypsin (Sigma) aus Rinderpankreas als Modellenzym, um die Hemmwirkung des erfindungsgemäß verwendeten Inhibitors N-CBZ-Gly-Pro-Phe-Pro-Leu, zu testen. Als Vergleich wurde auch das als t-PA-Inhibitor (tissue-type plasminogen activator) bekannte t-AMCHA [trans-4(Aminomethyl)-cyclohexancarbonsäure] getestet.
Auch der Nachweis der Trypsin-Enzymaktivität erfolgt mit einer Modifikation analog zu den Angaben im Sigma Quality Control Test Procedure-Datenblatt für Trypsin. Anstelle von Aprotinin (Reagens F) wurden hier die erfindungsgemäßen Inhibitoren eingesetzt. Hierfür wurde eine Konzentrationsreihe der Inhibitoren in Reagens E angesetzt. Die Enzymaktivität wurde durch Umsetzung des Substrates Nα-Benzoyl-DL-Arginin-p-Nitroanilin (BAPNA) zu Nα-Benzoyl-DL-Arginin und p-Nitroanilin spektrophotometrisch bestimmt. Die Absorption des proteolytisch abgespaltenen p-Nitroanilins wird bei 405 nm gemessen.
(§2) Die Reaktionskinetiken wurden je 5 Minuten bei 25 °C detektiert, wobei der lineare Anstieg der Absorption (A) pro Zeiteinheit (t) ein Maß für die Aktivität des Enzyms (ΔA/Δt) ist. Die Aktivität des Enzyms in Abwesenheit eines Proteinase-Inhibitors, (ΔA1/Δt1 ), wurde auf 100% gesetzt. Unter analogen Bedingungen wurden die Aktivitäten in Gegenwart eines Inhibitors (ΔA2/Δt2) bestimmt. Die Hemmwirkung oder Minderung der Enzymaktivität entspricht dann: 100% - (ΔA2/Δt2 )/( ΔA1/Δt1)%.

A further assay concerns the target T2, Chymotrypsin (Bos taurus, UniProt P00766).
T2 construct: Chymotrypsin entsteht im Pankreas aus inaktiven Vorstufen, sogenannten Zymogenen, durch Einwirkung von Trypsin; purchased Sigma; host or cells: bovine pancreas (Rinderpankreas)
The assay is described as follows: Chymotrypsin enzyme activity test (BTEE substrate, absorbance at 256 nm). It counts as biochemical, Rind. The following applies: for Hemmwirkung (Minderung der Chymotrypsin-Aktivität): 25 °C.
Excerpt: as §1
Der Nachweis der Chymotrypsin-Enzymaktivität erfolgt mit einer Modifikation analog zu den Angaben im Sigma Quality Control Test Procedure-Datenblatt für Chymotrypsin. Bei Ansätzen ohne Inhibitor wurden 1,42 mL Reagens A (80 mM Tris/HCl-Puffer, pH = 7,8; 25°C) zum Testansatz zugegeben. Bei Ansätzen mit Inhibitor wurden 1,32 mL Reagens A zum Testansatz zugegeben sowie 0,1 mL einer Lösung des entsprechenden Inhibitors in Reagens A (Konzentrationsreihe). Die Enzymaktivität wurde durch Umsetzung des Substrates N-Benzoyl-L-Tyrosinethylester (BTEE) zu N-Benzoyl-L-Tyrosin und Ethanol spektrophotometrisch bestimmt. Die Absorption des proteolytisch abgespaltenen N-Benzoyl-L-Tyrosins wird bei 256 nm gemessen.
as §2

In assay [1] the test system is Desquamation des Stratum corneum. Put plainly: Desquamation test on human skin biopsies (detergent-induced corneocyte shedding, corneocyte count). The assay is classed as cell-based. Conditions: for Desquamation an Humanhaut ex vivo: corneocyte count, positive control = 100 %, 44 h, 37° C. The source says:
Aus frischen Humanhautexplantaten (aus Mammareduktion) wurden 8mm^2-große Hautstücke ausgestanzt und mit einer Mischung aus Detergentien (Na-Dodecylsulfat, N,N-Dimethyldodecylaminoxid) in Abwesenheit und in Gegenwart der Inhibitoren behandelt. Unter dem Einfluß der Detergentien wird eine verstärkte Abschuppung (Desquamation) der Homschicht (Stratum corneum) künstlich induziert, also die Ausbildung trockener Haut im Versuch nachgeahmt. Die Anzahl abgeschuppter Hornzellen (Korneozyten) wurde unter dem Mikroskop in einer Schilling-Zählkammer bestimmt. Eine Verringerung der Korneozytenzahl weist auf eine hemmende Wirkung der getesteten potentiellen Inhibitoren hin.
Die Inhibitoren wurden in den entsprechenden Konzentrationen (vgl. Tabellen der Beispiele 7-12) im Inkubationspuffer angesetzt. Dieser bestand aus 0,1 M TRIS-HCl-Puffer (pH 8) mit 0,1 Gew.% Na-Azid und den Detergenzien Na-Dodecylsulfat (0,2 mM) und N,N-Dimethyldodecylaminoxid (8 mM) sowie EDTA (5 mM). Diese Inkubationspufferlösungen mit variierender Konzentration des Inhibitors werden nachfolgend als Testlösungen bezeichnet.
Es wurden zwei Arten von Blindkontrollen durchgeführt, eine Positiv- und eine Negativkontrolle. Für die sogenannte Positivkontrolle wurde nur der Inkubationspuffer verwendet, d. h. ohne Zusatz der Inhibitoren. Für die sogenannte Negativkontrolle wurde eine 5 mM Lösung von EDTA in TRIS-HCl-Puffer eingesetzt, d. h. ohne Zusatz der Detergentien.
Pro Reaktionsansatz wurden 0,5 mL der jeweiligen Testlösung oder des für die Blindkontrollen verwendeten Puffergemisches in verschließbaren Reaktionsgefäßen vorgelegt. Alle Ansätze wurden in vierfacher Ausfertigung durchgeführt, um die Reproduzierbarkeit der Ergebnisse zu gewährleisten.
Die Humanhaut wurde nach der Explantation in einer trockenen, sterilen Petrischale auf Kühlakkus transportiert. Nach Entfernung des Unterhautfett- und des Bindegewebes wurden mit Hilfe von sterilen Stanzen 8 mm^2-große Hautstücke präpariert. Diese wurden 15-20 min in steriler, physiologischer NaCl (0,9 %) gewaschen, zu den Reaktionsansätzen gegeben (1 Hautstück/Reaktionsansatz) und 44 Stunden bei 37° C inkubiert.
Nach Beendigung der Inkubationsphase wurden die Reaktionsgefäße 30 Sekunden auf einem Vortex-Mixer geschüttelt, um noch lose anhaftende Komeozyten von den Hautstücken abzulösen. Die Hautstücke wurden entnommen und die verbleibende Dispersion wurde 8 Minuten bei 11.000U/min zentrifugiert, um die Korneozyten zu isolieren. Der detergenshaltige Überstand (0,4 mL) wurde verworfen und der Rückstand mit 0,4 ml Aqua dest. gewaschen. Nach nochmaligem Zentrifugieren wurde der Überstand (0.4 mL) wiederum verworfen, das verbleibende Zellpellet in 0,4 mL Aqua dest. aufgenommen und die abgelösten Korneozyten in einer Schillingzählkammer unter einem Lichtmikroskop ausgezählt.
Nachfolgende Tabellen geben eine Zusammenstellung über die Anzahl abgelöster Korneozyten: • nach Behandlung der Haut-Biopsien mit einem Detergentiengemisch in Abwesenheit der Inhibitoren (Positivkontrolle) • nach Behandlung der Haut-Biopsien mit einer Pufferlösung in Abwesenheit der Detergentien und Inhibitoren (Negativkontrolle) • nach Behandlung der Haut-Biopsien mit einem Detergentiengemisch, welches die Inhibitoren in variierender Konzentration enthält.

Setting [2] is: inhibitor concentration 0,01 % (w/v).
Setting [3] is: inhibitor concentration 0,1 % (w/v).
The mark [4] stands for this setting: inhibitor concentration 0,001 % (w/v).
Setting [5] is: result in words over the tested concentration range.

On to Borsäure, for which the “Hemmwirkung (Minderung der Trypsin-Aktivität)” value is listed as “Keine Hemmwirkung meßbar” at Trypsin (setting [2]), 6% at Trypsin (setting [3]), 23% at Trypsin (inhibitor concentration 0,5 % (w/v)) and “Keine Hemmwirkung meßbar” at Trypsin (setting [4]). The “Hemmung von Trypsin” value at Trypsin (setting [5]) is “schwache Hemmung; also recorded: nur schwach”. The figures for the “Hemmwirkung (Minderung der Chymotrypsin-Aktivität)” value on Chymotrypsin (setting [2]), at Chymotrypsin (setting [3]) and at Chymotrypsin (setting [4]) were “keine Hemmwirkung meßbar”, 23% and “keine Hemmwirkung meßbar”, respectively. In addition, the “Hemmung von Chymotrypsin” value on Chymotrypsin (setting [5]) is reported as “schwache Hemmung; also recorded: nur schwach”. Further, the “Desquamation an Humanhaut ex vivo” value in assay [1] (inhibitor 0,01 % (w/v)) worked out at 86%; in assay [1] (inhibitor 0,1 % (w/v)) it was 50%; in assay [1] (inhibitor 0,2 % (w/v)) it was 47%. In assay [1] (inhibitor 0,2 %, result in words), the “Reduktion der Abschuppung der Korneozyten” value is on record as “halbieren”. Besides, the “Desquamation der Humanhaut (Korneozyten-Abschuppung)” value in assay [1] (setting [5]) is recorded as “signifikant reduziert”.
